The term IC50 denotes the concentration at which inhibition is half-maximal. Broadly, the inhibition is the relative decrease from the control value, in per cent.

These results are taken from patent US20090105278A1, “Selective inhibitors of human corticosteroid syntheses” (Universitat Des Saarlandes, priority 2004, published 2009).

In this test the target is T1, CYP11B2 in NCI-H295R (Homo sapiens, UniProt P19099).
T1 construct: contain 5 steroidogenic CYP450 enzymes, including 17-alpha-hydroxylase, CYP11B1 and CYP11B2; endogenous in cells; host or cells: NCI-H295R
T1 sequence (P19099 25-503): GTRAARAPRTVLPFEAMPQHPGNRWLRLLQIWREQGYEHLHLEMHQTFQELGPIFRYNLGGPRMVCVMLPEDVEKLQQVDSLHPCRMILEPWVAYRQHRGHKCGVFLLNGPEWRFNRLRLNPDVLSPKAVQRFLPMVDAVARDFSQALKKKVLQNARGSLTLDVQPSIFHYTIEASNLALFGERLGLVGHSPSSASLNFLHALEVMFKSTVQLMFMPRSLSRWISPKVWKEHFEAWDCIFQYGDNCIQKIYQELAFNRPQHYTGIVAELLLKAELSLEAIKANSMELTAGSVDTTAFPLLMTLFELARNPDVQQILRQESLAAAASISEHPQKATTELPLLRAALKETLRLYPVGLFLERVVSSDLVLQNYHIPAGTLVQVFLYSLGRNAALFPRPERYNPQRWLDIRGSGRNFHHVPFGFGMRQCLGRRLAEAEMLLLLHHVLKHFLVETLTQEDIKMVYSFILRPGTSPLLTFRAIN
Kind of test: NCI-H295R cells, CYP11B2 inhibition (substrates corticosterone B or deoxycorticosterone DOC). The format is cell-based. As to conditions: for inhibition at 2.5 µM: NCI-H295R. The procedure:
For testing inhibitors, a preincubation for one hour was performed first, followed by starting the enzyme reactions by adding substrate (500 nM).
A) Seeding: The cell lines were grown and passaged until a confluent cell lawn had formed. By tryptic treatment, the cell material of at least two culture dishes was obtained, and the number of cells determined by means of a CASY TT cell counter (150 μl capillary). […] With the cell material of two confluently grown culture dishes, two 24-well plates could be coated. After 24 hours, the cells had grown on, and after another 24 hours' stimulation phase with a solution containing potassium ions (final concentration: 20 mM KCl), could be employed for the test.
In the substrate solutions for the examinations on CYP11B2, the corticosterone substrate solution (final concentration in the test: 500 nM) consisted of 38.4 μl of [1,2-^3H(N)]corticosterone (1 mCi/ml, 76.5 Ci/mmol; NEN-Perkin-Elmer) in ethanol, 39.0 μl of unlabeled corticosterone solution (0.5 mM in ethanol) and 122.6 μl of ethanol. Deoxycorticosterone, which was also employed in a final concentration of 500 nM, was composed of 18 μl of [^14C]-labeled deoxycorticosterone (60.0 mCi/mmol; 0.5 nCi/μl) in ethanol in admixture with 54 μl of unlabeled substance (0.5 mM in ethanol) and 228 μl of ethanol.
Of this solution, 5 μl each was added to the samples.
Then, the 24-well plate was stored in a CO2 incubator at 37° C. and […]. The incubation time was 3 hours when deoxycorticosterone was used as the substrate, 24 Hours for corticosterone, and 48 hours for deoxycortisol.
Test stop: After elapse of the incubation times, the plates were briefly swung, and then the content of the wells was removed quantitatively if possible and inactivated by mixing with 1000 μl of dichloromethane in a 2 ml Eppendorf vessel. After 10 minutes of shaking, it was centrifuged for phase separation, and the […], organic phase was transferred into a 1.5 ml Eppendorf vessel.
After evaporating the solvent over night under a hood, the residue was taken up in 10 μl of chloroform and applied to the center of the concentration zone of an HPTLC plate.
For detecting the steroids on the TLC, the radiation-exposed film was scanned in the phosphoimager FLA 3000 after two days.
For the substrate corticosterone, equation 5 was valid: […]

Structures can show the parent of a compound that is named as a salt. Where two headings read alike, the source gives them in different places.

On to `Fc1ccc2c(c1)CC/C2=C/c1cccnc1` [Compound 5b, 3-[(Z)-(5-Fluoro-2,3-dihydro-1H-indane-1-ylidene)methyl]pyridine Hydrochloride], for which the IC50 is, setting by setting: (K+ stimulation 20 mM, substrate [3H]-corticosterone (B) 500 nM, incubation 24 h, read-out: NCI-H295R CYP11B2 B [IC50]) 17 µM; (substrate [14C]deoxycorticosterone (DOC) 500 nM, incubation 3 h, read-out: NCI-H295R CYP11B2 DOC [IC50]) 0.156 µM. The inhibition at 2.5 µM by setting is: (read-out: NCI-H295R CYP11B2 B % inhibition) 6.9%; (read-out: NCI-H295R CYP11B2 DOC % inhibition) 89.2%.
